According to ChEMBL document CHEMBL3877251, “Synthesis and biological evaluation of a series of N-alkylated imidazole alkanoic acids as mGAT3 selective GABA uptake inhibitors” (Eur J Med Chem, 2016):

Experiments:
Format in all cases: cell-based
[1] = target: T1, GABA transporter 2 (Mus musculus) (UniProt P31651); assay: Inhibition of mouse GAT2 expressed in HEK293 cells assessed as decrease in [3H]GABA uptake at 100 uM preincubated for 25 mins followed by [3H]GABA addition measured after 10 mins by liquid scintillation counter method
T1 sequence (whole entry): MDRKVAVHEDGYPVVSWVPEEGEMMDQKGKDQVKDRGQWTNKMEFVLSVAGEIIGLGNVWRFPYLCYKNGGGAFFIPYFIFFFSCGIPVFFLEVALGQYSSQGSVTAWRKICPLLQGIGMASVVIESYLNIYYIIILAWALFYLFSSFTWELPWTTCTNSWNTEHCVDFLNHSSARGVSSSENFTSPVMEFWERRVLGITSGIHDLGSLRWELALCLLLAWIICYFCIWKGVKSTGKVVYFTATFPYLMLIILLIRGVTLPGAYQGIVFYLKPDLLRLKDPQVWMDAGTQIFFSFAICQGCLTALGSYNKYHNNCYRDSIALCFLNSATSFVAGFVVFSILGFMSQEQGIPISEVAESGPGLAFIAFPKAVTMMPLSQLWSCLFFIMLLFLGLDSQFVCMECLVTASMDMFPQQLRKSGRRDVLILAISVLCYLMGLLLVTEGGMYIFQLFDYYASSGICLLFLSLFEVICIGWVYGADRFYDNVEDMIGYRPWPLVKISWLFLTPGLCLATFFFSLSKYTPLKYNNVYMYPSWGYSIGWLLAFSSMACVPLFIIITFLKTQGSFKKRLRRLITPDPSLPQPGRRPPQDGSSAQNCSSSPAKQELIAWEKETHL

[2] = target: T2, GABA transporter 3 (Mus musculus) (UniProt P31649); assay: Inhibition of mouse GAT3 expressed in HEK293 cells assessed as decrease in [3H]GABA uptake at 100 uM preincubated for 25 mins followed by [3H]GABA addition measured after 4 mins by liquid scintillation counter method
T2 sequence (whole entry): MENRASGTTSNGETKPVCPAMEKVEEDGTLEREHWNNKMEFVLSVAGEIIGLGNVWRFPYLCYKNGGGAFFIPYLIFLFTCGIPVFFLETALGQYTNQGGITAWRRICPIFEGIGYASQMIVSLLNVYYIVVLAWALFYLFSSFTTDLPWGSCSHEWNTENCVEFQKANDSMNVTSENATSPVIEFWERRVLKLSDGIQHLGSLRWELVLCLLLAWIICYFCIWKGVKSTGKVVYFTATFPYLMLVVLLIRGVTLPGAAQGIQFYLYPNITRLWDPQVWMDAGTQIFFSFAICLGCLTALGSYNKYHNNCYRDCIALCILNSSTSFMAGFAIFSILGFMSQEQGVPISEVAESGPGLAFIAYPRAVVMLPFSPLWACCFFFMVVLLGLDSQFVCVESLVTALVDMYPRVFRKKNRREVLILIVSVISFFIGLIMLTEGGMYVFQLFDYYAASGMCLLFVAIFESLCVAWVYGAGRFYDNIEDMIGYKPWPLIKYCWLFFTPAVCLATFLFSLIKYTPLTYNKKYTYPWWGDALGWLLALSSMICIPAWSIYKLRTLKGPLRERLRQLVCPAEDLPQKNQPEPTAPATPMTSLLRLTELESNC

[3] = target: Sodium- and chloride-dependent GABA transporter 1 (Mus musculus) (UniProt P31648); assay: Inhibition of mouse GAT1 expressed in HEK293 cells assessed as decrease in [3H]GABA uptake at 100 uM preincubated for 25 mins followed by [3H]GABA addition measured after 4 mins by liquid scintillation counter method
[4] = target: T3, GABA transporter 4 (Mus musculus) (UniProt P31650); assay: Inhibition of mouse GAT4 expressed in HEK293 cells assessed as decrease in [3H]GABA uptake at 100 uM preincubated for 25 mins followed by [3H]GABA addition measured after 4 mins by liquid scintillation counter method
T3 sequence (whole entry): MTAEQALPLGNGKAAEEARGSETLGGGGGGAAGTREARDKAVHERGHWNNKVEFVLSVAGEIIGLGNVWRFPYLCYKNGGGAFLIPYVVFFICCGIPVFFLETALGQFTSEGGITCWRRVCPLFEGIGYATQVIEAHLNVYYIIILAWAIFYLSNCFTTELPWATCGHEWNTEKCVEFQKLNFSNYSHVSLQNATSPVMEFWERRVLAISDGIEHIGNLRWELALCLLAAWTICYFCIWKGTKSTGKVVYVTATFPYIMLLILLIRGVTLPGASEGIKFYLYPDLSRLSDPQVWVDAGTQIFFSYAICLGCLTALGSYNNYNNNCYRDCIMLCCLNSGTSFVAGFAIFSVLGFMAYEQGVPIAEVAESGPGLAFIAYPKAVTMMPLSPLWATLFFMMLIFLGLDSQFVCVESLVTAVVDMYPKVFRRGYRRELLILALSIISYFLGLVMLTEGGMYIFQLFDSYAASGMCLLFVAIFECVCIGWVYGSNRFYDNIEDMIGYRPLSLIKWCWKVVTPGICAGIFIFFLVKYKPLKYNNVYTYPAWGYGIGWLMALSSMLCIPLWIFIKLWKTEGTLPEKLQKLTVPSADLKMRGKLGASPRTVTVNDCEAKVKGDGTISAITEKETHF

GABA transporter 4 = target: T4, GABA transporter 4 (Mus musculus, UniProt P31650); assay: Inhibition of mouse GAT4 expressed in HEK293 cells assessed as decrease in [3H]GABA uptake preincubated for 25 mins followed by [3H]GABA addition measured after 4 mins by liquid scintillation counter method
T4 sequence (P31650 whole entry): T3 sequence (whole entry)

GABA transporter 2 = target: T5, GABA transporter 2 (Mus musculus, UniProt P31651); assay: Inhibition of mouse GAT2 expressed in HEK293 cells assessed as decrease in [3H]GABA uptake preincubated for 25 mins followed by [3H]GABA addition measured after 10 mins by liquid scintillation counter method
T5 sequence (P31651 whole entry): T1 sequence (whole entry)

GABA transporter 3 = target: T6, GABA transporter 3 (Mus musculus, UniProt P31649); assay: Inhibition of mouse GAT3 expressed in HEK293 cells assessed as decrease in [3H]GABA uptake preincubated for 25 mins followed by [3H]GABA addition measured after 4 mins by liquid scintillation counter method
T6 sequence (P31649 whole entry): T2 sequence (whole entry)

[5] = target: Sodium- and chloride-dependent GABA transporter 1 (Mus musculus, UniProt P31648); assay: Inhibition of mouse GAT1 expressed in HEK293 cells assessed as decrease in [3H]GABA uptake preincubated for 25 mins followed by [3H]GABA addition measured after 4 mins by liquid scintillation counter method
[6] = target: T7, Sodium- and chloride-dependent betaine transporter (Homo sapiens, UniProt P48065); assay: Inhibition of human BGT-1 expressed in thymidine kinase deficient mouse LM cells assessed as decrease in [3H]GABA uptake after 10 mins by scintillation counter method
T7 sequence (P48065 whole entry): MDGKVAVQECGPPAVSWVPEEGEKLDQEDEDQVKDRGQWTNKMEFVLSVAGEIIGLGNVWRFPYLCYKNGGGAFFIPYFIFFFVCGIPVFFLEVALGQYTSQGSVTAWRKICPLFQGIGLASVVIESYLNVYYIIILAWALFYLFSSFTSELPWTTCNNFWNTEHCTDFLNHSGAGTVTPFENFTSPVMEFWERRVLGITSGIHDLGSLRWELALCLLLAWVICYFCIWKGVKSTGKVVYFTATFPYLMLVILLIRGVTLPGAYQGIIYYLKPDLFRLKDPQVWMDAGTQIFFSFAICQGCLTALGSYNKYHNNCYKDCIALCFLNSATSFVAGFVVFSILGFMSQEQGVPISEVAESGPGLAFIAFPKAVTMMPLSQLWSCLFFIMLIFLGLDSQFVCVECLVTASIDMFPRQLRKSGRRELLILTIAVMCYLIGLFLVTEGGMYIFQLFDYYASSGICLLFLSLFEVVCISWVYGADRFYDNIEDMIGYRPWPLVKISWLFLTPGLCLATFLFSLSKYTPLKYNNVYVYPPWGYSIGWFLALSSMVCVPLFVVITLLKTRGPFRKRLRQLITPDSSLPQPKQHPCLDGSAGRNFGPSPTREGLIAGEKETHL

| inhibition [1] | inhibition [2] | inhibition [3] | inhibition [4] | IC50 (GABA transporter 4) | IC50 (GABA transporter 2) | IC50 (GABA transporter 3) | IC50 [5] | IC50 [6] | Compound |
| --- | --- | --- | --- | --- | --- | --- | --- | --- | --- |
| 44% | 46.7% | 56.6% | 85.4% |  |  |  |  |  | COc1ccc(C2(OCCn3cnc(CC(=O)O)c3)c3ccccc3-c3ccccc32)cc1 |
|  | 41.7% | 70.8% | 59% |  | 22.9 µM |  |  |  | COc1ccc(C2(OCCCCn3cncc3CC(=O)O)c3ccccc3-c3ccccc32)cc1 |
|  |  |  |  | 10.2 µM | 28.8 µM |  | 12.6 µM |  | COc1ccc(C2(OCCCCCn3ccnc3/C=C/C(=O)O)c3ccccc3-c3ccccc32)cc1 |
|  | 51.4% | 84.2% | 61.4% |  | 97.7 µM |  |  |  | COc1ccc(C2(OCCCn3cnc(CC(=O)O)c3)c3ccccc3-c3ccccc32)cc1 |
| 53% | 43.2% | 64.8% | 58.3% |  |  |  |  |  | COc1ccc(C2(OCCn3ccnc3CCC(=O)O)c3ccccc3-c3ccccc32)cc1 |
| 24.2% |  | 62.4% |  | 39.8 µM |  | 47.9 µM |  |  | COc1ccc(C2(/C=C/Cn3cnc(CC(=O)O)c3)c3ccccc3-c3ccccc32)cc1 |
|  |  | 64.9% |  | 49 µM | 24 µM | 39.8 µM |  |  | COc1ccc(C2(OCCCCn3cnc(CC(=O)O)c3)c3ccccc3-c3ccccc32)cc1 |
|  |  |  |  | 174 µM | 25.1 µM | 87.1 µM | 141 µM |  | COc1ccc(C2(OCCCCn3ccnc3CCC(=O)O)c3ccccc3-c3ccccc32)cc1 |
| 31.2% | 48.6% |  | 55.4% |  |  |  | 100 µM |  | COc1ccc(C2(OCCCn3ccnc3CCC(=O)O)c3ccccc3-c3ccccc32)cc1 |
| 70.1% |  | 50.1% | 55.6% |  |  | 81.3 µM |  |  | COc1ccc(C2(OCCCn3cncc3CC(=O)O)c3ccccc3-c3ccccc32)cc1 |
| 38.5% | 68% |  | 77.4% |  |  |  | 79.4 µM |  | COc1ccc(C2(OCCCCCn3cncc3CC(=O)O)c3ccccc3-c3ccccc32)cc1 |
|  |  | 72.7% |  | 105 µM | 61.7 µM | 97.7 µM |  |  | COc1ccc(C2(OCCCCCn3cnc(CC(=O)O)c3)c3ccccc3-c3ccccc32)cc1 |
|  |  |  |  | 29.5 µM | 12.6 µM | 23.4 µM | 11.7 µM |  | COc1ccc(C2(OCCCCCn3ccnc3CCC(=O)O)c3ccccc3-c3ccccc32)cc1 |
| 57.9% | 50.8% | 67.2% | 46% |  |  |  |  |  | COc1ccc(C2(OCCn3cncc3CC(=O)O)c3ccccc3-c3ccccc32)cc1 |

More lines, now with the values behind:

| Compound | inhibition [1] | inhibition [2] | inhibition [3] | inhibition [4] | IC50 (GABA transporter 4) | IC50 (GABA transporter 2) | IC50 (GABA transporter 3) | IC50 [5] | IC50 [6] |
| --- | --- | --- | --- | --- | --- | --- | --- | --- | --- |
| COc1ccc(C2(/C=C/Cn3ccnc3CCC(=O)O)c3ccccc3-c3ccccc32)cc1 |  |  | 48.5% |  | 43.7 µM | 25.1 µM | 35.5 µM |  |  |
| Cc1ccsc1C(=CCCN1CCC[C@@H](C(=O)O)C1)c1sccc1C | 52% | 64% |  | 73% |  |  |  |  |  |
| COc1ccc(C2(/C=C/Cn3cncc3CC(=O)O)c3ccccc3-c3ccccc32)cc1 |  |  |  |  | 110 µM | 166 µM | 79.4 µM | 126 µM |  |
| O=C(O)CCc1ncc[nH]1 |  |  | 62.8% |  | 309 µM | 525 µM | 28.8 µM |  |  |
| O=C(O)/C=C/c1ncc[nH]1 | 77.3% |  | 73.7% | 47.2% |  |  |  |  |  |
| COc1ccc(C2(OC/C=C\Cn3ccnc3CCC(=O)O)c3ccccc3-c3ccccc32)cc1 |  |  |  |  | 13.2 µM | 37.2 µM | 15.8 µM | 70.8 µM |  |
| COc1ccc(C2(OC/C=C/Cn3ccnc3CCC(=O)O)c3ccccc3-c3ccccc32)cc1 |  | 43.9% | 55.8% | 61.4% |  | 32.4 µM |  |  |  |
| COc1ccc(C2(OCCOCCn3ccnc3CCC(=O)O)c3ccccc3-c3ccccc32)cc1 | 48.3% |  |  | 50.7% |  |  | 28.2 µM | 37.2 µM |  |
| COc1ccc(C2(/C=C/COCCn3ccnc3CCC(=O)O)c3ccccc3-c3ccccc32)cc1 |  |  |  |  | 21.9 µM | 30.9 µM | 24.5 µM | 26.3 µM |  |
| COc1ccc(C2(OCCN3CCCC(C(=O)O)C3)c3ccccc3-c3ccccc32)cc1 (stereo not drawn) | 66.3% |  | 73.1% |  | 30.2 µM |  | 93.3 µM |  | 27 µM |
| O=C(O)CCc1nccn1CCC=C(c1ccccc1)c1ccccc1 |  | 48.1% |  | 53.7% |  | 58.9 µM |  | 74.1 µM |  |
